Entries after “also recorded” stand apart in the source; their conditions may differ. Bridge positions count the residues as written; N and C are the ends. Peptide text beside a SMILES is read from it.
Experiments:
[1] = test system: KLK5-mediated PAR2 activation; test: PAR2-dependent intracellular calcium mobilization assay in N/TERT keratinocytes; assay type: cell-based; conditions: 2.5 to 40 μM, rKLK5 10 μM, preincubated one hour, n = 3, listed as lead 7
From the text: PAR2, a member of the G-protein-coupled receptor family expressed in keratinocytes, is a known downstream target of KLK5. KLK5 activates PAR2 by cleaving its extracellular N-terminal domain. This cleavage exposes a tethered ligand, which binds PAR2 intramolecularly to activate the receptor. , Activated PAR2 causes protein kinase C (PKC) and inositol 1,4,5-trisphosphate (IP3) activation, leading to calcium release from the endoplasmic reticulum, known as intracellular calcium mobilization. […] This delay is attributed to the time required for KLK5 to enzymatically cleave the extracellular N-terminal domain of PAR2, thereby exposing the tethered ligand sequence necessary to initiate receptor activation and downstream calcium signaling. […] This observation confirmed PAR2-dependent calcium mobilization and that rKLK5 could initiate PAR2 activation. The inhibition potential of lead 7 on KLK5 activity was then assessed by using this assay. rKLK5 was preincubated with lead 7 at concentrations of 2.5, 5, 20, or 40 μM for one hour before being applied to cultured keratinocytes, after which PAR2-dependent calcium mobilization was measured.
For Ki calculation, Km values for KLK5 and its substrate Boc-VPR-AMC were previously reported in the literature 8, 9, allowing the conversion from IC50 to Ki using the Cheng Prusoff equation10 Kᵢ = IC₅₀ / (1 + [S]/Kₘ) for single-site competitive binding.
Cell lines and tissue cultures
Keratinocytes isolated from the skin in a patient with genetic skin disease Netherton Syndrome (NS19) and in healthy donors (C42, C46, P8) were used in the study. […]
The immortalized keratinocyte cell line (N/TERT)13, 14 were used for the assay. […] The cells were counted, and 100 µL of the suspension, at a density of 600,000 cells/mL, was seeded into each well of a 96 -well microplate. […]
calcium signalling. […] Fluorescence excitation was set at 485 nm, and emission was recorded at 520 nm using SpectraMax® i3x plate reader. […]

[2] = test system: endogenous KLK5 of NS keratinocytes; test: KLK5 protease activity assay for culture medium of NS keratinocytes; assay type: biochemical, human; conditions: for KLK5 activity in NS keratinocytes medium after treatment: one hour, n = 3, untreated 51.9 ± 1.6 nmol/g
Method: To evaluate the inhibition of lead 7 on endogenous KLK5 activity, media collected from cultured NS keratinocytes and healthy donor keratinocytes were incubated with lead 7 at the final concentration of 100 nM, or 1 μM, or 10 μM for one hour. Media were then concentrated, and KLK5 activity was measured. […] There were significant differences in KLK5 activity before and after treatment (p < 0.05, n = 3). […] This may be because lead 7 exerts inhibitory effects only when KLK5 activity exceeds a certain threshold, which is not reached in keratinocytes from healthy donors. It was noted that the activity of KLK5 in NS was not reduced to the levels observed in normal keratinocytes. Two reasons might be behind this: (i) a higher lead 7 dose may be required, and (ii) the VPR-AMC substrate can be cleaved by a wider range of serine proteases. The remaining noninhibitory activity could be attributed to the presence of other trypsin-like serine proteases secreted in the cultured medium, which can hydrolyze the VPR-AMC substrate but are not inhibited by lead 7. […]
KLK5 protease activity assay for culture medium
Keratinocytes were seeded in 6 well plate with the density of 0.2 × 10⁶ cells per well and cultured in RM+ medium until they reached confluency. The culture media were changed to FBS free-RM+ media, and cells were continuously cultured. 48 hours after the medium changing, the culture media were harvested from the cell culture plates and centrifuged to remove dead cells. A volume of 180 µL of the supernatants was transferred to 1.5 mL Eppendorf tubes, followed by the addition of 20 µL of analogues in 1x PBS at different concentrations. The samples in which 20 µL of 1x PBS instead of the lead 7 were added were as untreated controls. These mixtures were incubated for one hours at 37 degrees Celsius and then processed for precipitation to concentrate the samples using ProteoExtract® Protein Precipitation Kit (Millipore, cat no. 539180). The precipitates were resuspended in 20 µL of 1X PBS (pH 8.0) for protease activity assessment using protease activity assay. 10uL of suspension from each sample was added in 96 well black plate. The enzymatic reaction was initiated by adding 100 µL of Boc-VPR-AMC substrate (final concentration 100 µM) to each well and RFU values in samples were measured. Protease activities were expressed as nmol/g by first converting RFU readings to KLK5 equivalent concentration activity using a KLK5 standard curve, followed by normalization to total protein content

Q: How did the “PAR2-dependent calcium mobilization after rKLK5 preincubated with inhibitor” value [1] turn out when `C[C@@H](O)[C@@H]1NC(=O)[C@@H]2CSSC[C@H](NC(=O)[C@H](CCC(=O)O)NC(=O)[C@@H]3CCCN3C(=O)[C@@H]3CCCN3C(=O)[C@H](CC(N)=O)NC(=O)[C@H](CO)NC(=O)[C@H](CCCNC(=N)N)NC1=O)C(=O)N[C@@H](Cc1c[nH]c3ccccc13)C(=O)N1CCC[C@H]1C(=O)N[C@@H](CC(N)=O)C(=O)NCC(=O)N[C@@H](Cc1ccccc1)C(=O)N2` [compound 7] (cyclo(GFCTRSNPPECWPN); disulfide 3-11) was run?
A: dose-dependent reduction; also recorded: progressive reduction in calcium release

Q: What about the “reduction in KLK5 activity, NS keratinocytes” value (from here on “reduction in KLK5 activity”) ([2]; 100 nM) of the same molecule?
A: 14.6%

Q: And the “KLK5 activity in NS keratinocytes medium after treatment” value (shortened to “KLK5 activity … after treatment”) ([2]; 100 nM)?
A: 44.3 ± 2.7 nmol/g

Q: What about the “reduction in KLK5 activity” value ([2]; 1 μM) of the same molecule?
A: 35.5%

Q: And the “KLK5 activity … after treatment” value ([2]; 1 μM)?
A: 33.5 ± 2.6 nmol/g

Q: What about the “reduction in KLK5 activity” value ([2]; 10 μM) of the same molecule?
A: 41.2%

Q: What about the “KLK5 activity … after treatment” value ([2]; 10 μM) of the same molecule?
A: 30.5 ± 1.7 nmol/g

Source: publication PMC12670400, “LEKTI-Grafted Sunflower Trypsin Inhibitor: A Potential Therapeutic for Skin Diseases” (Journal of Medicinal Chemistry, 2025)
